Measured values: ChEMBL document CHEMBL1909046, “DrugMatrix in vitro pharmacology data”

What was measured:
Substance-K receptor = target: T1, Substance-K receptor (Homo sapiens, UniProt P21452); assay type: cell membranes, CHO, Membrane; also: in other assays of this panel Not Active means under 50% inhibition at 10 µM
T1 sequence (P21452 whole entry): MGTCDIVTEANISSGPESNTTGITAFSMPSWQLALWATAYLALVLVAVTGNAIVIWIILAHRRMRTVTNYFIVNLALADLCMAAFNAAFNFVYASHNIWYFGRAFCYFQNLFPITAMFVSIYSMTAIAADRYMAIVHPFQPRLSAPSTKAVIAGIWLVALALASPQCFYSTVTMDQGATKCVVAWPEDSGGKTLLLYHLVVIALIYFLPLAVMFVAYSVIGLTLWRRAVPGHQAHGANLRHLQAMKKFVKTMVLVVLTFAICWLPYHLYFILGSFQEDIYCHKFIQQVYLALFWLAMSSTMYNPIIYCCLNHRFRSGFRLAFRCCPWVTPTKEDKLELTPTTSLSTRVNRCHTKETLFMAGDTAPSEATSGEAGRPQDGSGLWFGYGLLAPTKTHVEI

[1] = target: Voltage-gated inwardly rectifying potassium channel KCNH2 (Homo sapiens, UniProt Q12809); details: hek293; also: in other assays of this panel Not Active means under 50% inhibition at 10 µM
Sequence of Voltage-gated inwardly rectifying potassium channel KCNH2 (Q12809 whole entry): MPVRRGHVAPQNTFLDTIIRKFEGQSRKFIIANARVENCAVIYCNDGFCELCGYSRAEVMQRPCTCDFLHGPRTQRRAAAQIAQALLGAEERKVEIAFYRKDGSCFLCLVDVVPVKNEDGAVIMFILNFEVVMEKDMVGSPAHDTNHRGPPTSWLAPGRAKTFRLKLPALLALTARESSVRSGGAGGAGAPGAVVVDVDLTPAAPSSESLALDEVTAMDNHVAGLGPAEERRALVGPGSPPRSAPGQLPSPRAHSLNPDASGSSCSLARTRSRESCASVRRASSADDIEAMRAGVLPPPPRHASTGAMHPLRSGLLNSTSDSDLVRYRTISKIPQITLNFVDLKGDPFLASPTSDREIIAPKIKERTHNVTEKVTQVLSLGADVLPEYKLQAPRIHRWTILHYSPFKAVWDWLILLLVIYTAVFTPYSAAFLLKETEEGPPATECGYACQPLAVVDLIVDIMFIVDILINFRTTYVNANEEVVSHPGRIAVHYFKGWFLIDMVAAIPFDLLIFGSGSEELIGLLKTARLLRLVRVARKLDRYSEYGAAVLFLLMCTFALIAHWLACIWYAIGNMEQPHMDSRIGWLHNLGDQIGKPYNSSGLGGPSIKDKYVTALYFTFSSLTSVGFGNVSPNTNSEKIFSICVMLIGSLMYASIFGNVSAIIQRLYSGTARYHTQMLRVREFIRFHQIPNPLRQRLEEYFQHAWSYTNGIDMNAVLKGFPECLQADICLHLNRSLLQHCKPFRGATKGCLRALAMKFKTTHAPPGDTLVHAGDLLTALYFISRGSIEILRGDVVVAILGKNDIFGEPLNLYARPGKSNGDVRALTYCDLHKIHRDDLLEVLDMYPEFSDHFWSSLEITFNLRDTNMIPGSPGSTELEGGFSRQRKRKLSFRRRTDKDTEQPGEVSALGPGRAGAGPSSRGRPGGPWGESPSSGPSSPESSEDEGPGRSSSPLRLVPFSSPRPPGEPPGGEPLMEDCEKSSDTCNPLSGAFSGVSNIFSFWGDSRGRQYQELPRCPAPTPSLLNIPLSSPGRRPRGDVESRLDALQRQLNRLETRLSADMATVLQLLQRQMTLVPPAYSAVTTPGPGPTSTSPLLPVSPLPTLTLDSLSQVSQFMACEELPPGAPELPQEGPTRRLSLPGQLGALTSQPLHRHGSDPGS

[2] = DRUGMATRIX: Sodium/nucleoside co-transporter radioligand binding (ligand: nitrobenzylthioinosine); assay type: cell membranes, Cavia porcellus, Dunkin-Hartley, Cerebral cortex, Membrane; details: Not Active = under 50% inhibition at 10 µM
[3] = DRUGMATRIX: Phosphodiesterase PDE4 enzyme inhibition (substrate: [3H]cAMP + cAMP); details: u-937; Not Active = under 50% inhibition at 10 µM
Interstitial collagenase = target: T2, Interstitial collagenase (Homo sapiens, UniProt P03956); assay: biochemical; assay type: tissue-based, Rheumatoid synovial fibroblasts;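 also: MMP-1 enzyme inhibition assay using a peptide substrate; in other assays of this panel Not Active means under 50% inhibition at 10 µM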
T2 sequence (P03956 whole entry): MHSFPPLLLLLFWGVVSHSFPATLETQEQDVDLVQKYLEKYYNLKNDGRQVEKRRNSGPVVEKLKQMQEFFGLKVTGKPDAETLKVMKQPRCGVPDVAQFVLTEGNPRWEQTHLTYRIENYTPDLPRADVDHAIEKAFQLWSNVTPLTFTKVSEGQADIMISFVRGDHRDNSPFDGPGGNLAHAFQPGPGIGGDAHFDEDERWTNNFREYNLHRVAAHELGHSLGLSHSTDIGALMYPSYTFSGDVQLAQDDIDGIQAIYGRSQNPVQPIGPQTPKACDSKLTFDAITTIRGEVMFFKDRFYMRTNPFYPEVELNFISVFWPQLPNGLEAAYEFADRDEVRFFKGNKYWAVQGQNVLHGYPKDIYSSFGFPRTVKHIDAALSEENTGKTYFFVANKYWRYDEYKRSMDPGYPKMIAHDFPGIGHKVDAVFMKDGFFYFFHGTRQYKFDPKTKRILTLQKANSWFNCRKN

Insulin receptor = Insulin receptor (Rattus norvegicus, UniProt P15127); assay type: cell membranes, Wistar, Liver, Membrane; also: in other assays of this panel Not Active means under 50% inhibition at 10 µM
Sequence of Insulin receptor (P15127 27-759 limits assumed): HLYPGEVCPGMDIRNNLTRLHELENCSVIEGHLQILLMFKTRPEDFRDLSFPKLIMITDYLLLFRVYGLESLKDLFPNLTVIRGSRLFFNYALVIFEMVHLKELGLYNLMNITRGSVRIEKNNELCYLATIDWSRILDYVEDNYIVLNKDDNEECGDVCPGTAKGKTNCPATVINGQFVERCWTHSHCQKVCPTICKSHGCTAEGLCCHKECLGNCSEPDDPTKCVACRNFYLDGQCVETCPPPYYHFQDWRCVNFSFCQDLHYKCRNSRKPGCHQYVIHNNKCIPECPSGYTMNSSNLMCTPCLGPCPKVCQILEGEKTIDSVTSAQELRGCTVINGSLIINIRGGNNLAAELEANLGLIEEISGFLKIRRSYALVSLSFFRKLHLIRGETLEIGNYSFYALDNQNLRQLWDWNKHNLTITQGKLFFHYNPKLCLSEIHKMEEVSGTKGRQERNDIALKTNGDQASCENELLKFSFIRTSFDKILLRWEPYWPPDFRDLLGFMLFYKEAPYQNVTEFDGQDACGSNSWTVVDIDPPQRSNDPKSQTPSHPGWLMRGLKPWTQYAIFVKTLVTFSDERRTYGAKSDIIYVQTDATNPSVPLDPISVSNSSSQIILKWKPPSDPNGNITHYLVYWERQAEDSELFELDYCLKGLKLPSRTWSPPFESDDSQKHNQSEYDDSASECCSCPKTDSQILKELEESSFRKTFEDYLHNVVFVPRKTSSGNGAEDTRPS
Sequence of Insulin receptor (P15127 764-1383 limits assumed): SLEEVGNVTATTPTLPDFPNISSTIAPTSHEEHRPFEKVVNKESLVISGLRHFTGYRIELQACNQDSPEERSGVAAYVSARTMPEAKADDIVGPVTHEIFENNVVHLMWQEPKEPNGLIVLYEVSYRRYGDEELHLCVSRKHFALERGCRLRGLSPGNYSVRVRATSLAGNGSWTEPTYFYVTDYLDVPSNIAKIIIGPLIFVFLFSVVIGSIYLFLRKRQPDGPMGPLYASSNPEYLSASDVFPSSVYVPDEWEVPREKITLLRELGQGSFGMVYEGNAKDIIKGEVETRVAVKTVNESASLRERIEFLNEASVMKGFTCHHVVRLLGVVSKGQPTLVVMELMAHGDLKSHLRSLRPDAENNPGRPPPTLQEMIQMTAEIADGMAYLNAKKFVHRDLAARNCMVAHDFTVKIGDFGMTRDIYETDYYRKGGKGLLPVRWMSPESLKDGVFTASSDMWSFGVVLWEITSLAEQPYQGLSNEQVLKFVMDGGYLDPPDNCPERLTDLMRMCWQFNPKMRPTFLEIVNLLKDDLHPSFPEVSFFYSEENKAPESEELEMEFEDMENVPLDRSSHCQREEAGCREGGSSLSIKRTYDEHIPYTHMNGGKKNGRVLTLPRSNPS

Melanocortin receptor 5 = Melanocortin receptor 5 (Homo sapiens, UniProt P33032); assay type: cell membranes, HEK293, Membrane; details: hek293; also: in other assays of this panel Not Active means under 50% inhibition at 10 µM
Sequence of Melanocortin receptor 5 (P33032 whole entry): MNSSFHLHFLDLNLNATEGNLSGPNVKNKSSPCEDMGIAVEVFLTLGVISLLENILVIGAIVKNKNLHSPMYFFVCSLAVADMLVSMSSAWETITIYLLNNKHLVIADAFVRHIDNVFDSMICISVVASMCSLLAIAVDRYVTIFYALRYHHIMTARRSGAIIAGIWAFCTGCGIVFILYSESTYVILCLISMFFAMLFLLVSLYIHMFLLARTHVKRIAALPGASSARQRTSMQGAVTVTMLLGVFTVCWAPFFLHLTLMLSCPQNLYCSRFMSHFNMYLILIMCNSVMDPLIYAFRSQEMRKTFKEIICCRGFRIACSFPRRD

SMILES | IC50 (Substance-K receptor; read-out: IC50) [µM] | Ki (Substance-K receptor; read-out: Ki) [µM] | IC50 [1] | Ki [1] | IC50 [2] | Ki [2] | IC50 [3] | Ki [3] | IC50 (Interstitial collagenase) | IC50 (Insulin receptor) | IC50 (Melanocortin receptor 5) | IC50 (Substance-K receptor; cho) | Ki (Melanocortin receptor 5)
CC(=O)O[C@@]12CO[C@@H]1C[C@H](O)[C@@]1(C)C(=O)[C@H](O)C3=C(C)[C@@H](OC(=O)[C@H](O)[C@@H](NC(=O)OC(C)(C)C)c4ccccc4)C[C@@](O)([C@@H](OC(=O)c4ccccc4)[C@H]21)C3(C)C.O.O.O [DOCETAXEL] | 1.56 | 0.521 | Not Active | Not Active | Not Active | Not Active | Not Active | Not Active | Not Active | Not Active | Not Active |  | 
C[C@H]1c2cccc(O)c2C(=O)C2=C(O)[C@]3(O)C(=O)C(C(N)=O)=C(O)[C@@H](N(C)C)[C@@H]3[C@@H](O)[C@@H]21.O [DOXYCYCLINE] |  |  | Not Active | Not Active | Not Active | Not Active | Not Active | Not Active | Not Active | Not Active | Not Active | Not Active | 
CC(C)[C@H]1C(=O)N2CCC[C@H]2[C@]2(O)O[C@](NC(=O)[C@@H]3C=C4c5cccc6[nH]cc(c56)C[C@H]4N(C)C3)(C(C)C)C(=O)N12 [ERGOCORNINE] |  |  | Not Active | Not Active | Not Active | Not Active | Not Active | Not Active | Not Active | Not Active | Not Active | Not Active | 
C[C@]12CC[C@@H]3c4ccc(O)cc4CC[C@H]3[C@@H]1CCC2=O [ESTRONE] |  |  | Not Active | Not Active | Not Active | Not Active | Not Active | Not Active | Not Active | Not Active | Not Active | Not Active | 
OC(Cn1cncn1)(Cn1cncn1)c1ccc(F)cc1F [FLUCONAZOLE] |  |  | Not Active | Not Active | Not Active | Not Active | Not Active | Not Active | Not Active | Not Active | Not Active | Not Active | 
CC(C)C(=O)Nc1ccc([N+](=O)[O-])c(C(F)(F)F)c1 [FLUTAMIDE] |  |  | Not Active | Not Active | Not Active | Not Active | Not Active | Not Active | Not Active | Not Active | Not Active | Not Active | 
CC1(C)O[C@@H]2C[C@H]3[C@@H]4CCC5=CC(=O)CC[C@]5(C)[C@@]4(F)[C@@H](O)C[C@]3(C)[C@]2(C(=O)CCl)O1 [HALCINONIDE] |  |  | Not Active | Not Active | Not Active | Not Active | Not Active | Not Active | Not Active | Not Active | Not Active | Not Active | 
O=c1[nH]c(=O)n([C@H]2C[C@H](O)[C@@H](CO)O2)cc1I [IDOXURIDINE] |  |  | Not Active | Not Active | Not Active | Not Active | Not Active | Not Active | Not Active | Not Active | Not Active | Not Active | 
CC1Cc2ccccc2N1NC(=O)c1ccc(Cl)c(S(N)(=O)=O)c1 (stereo unspecified) [INDAPAMIDE] |  |  | Not Active | Not Active | Not Active | Not Active | Not Active | Not Active | Not Active | Not Active | Not Active | Not Active | 
Nc1nc(N)nc(-c2cc(Cl)ccc2Cl)n1.O=C(O)/C=C\C(=O)O [IRSOGLADINE MALEATE] |  |  | Not Active | Not Active | Not Active | Not Active | Not Active | Not Active | Not Active | Not Active | Not Active | Not Active | 
CCC(C)n1ncn(-c2ccc(N3CCN(c4ccc(OCC5COC(Cn6cncn6)(c6ccc(Cl)cc6Cl)O5)cc4)CC3)cc2)c1=O (stereo unspecified) [ITRACONAZOLE] |  |  | Not Active | Not Active | Not Active | Not Active | Not Active | Not Active | Not Active | Not Active | Not Active | Not Active | 
CCCCN1CCCC[C@H]1C(=O)Nc1c(C)cccc1C [LEVOBUPIVACAINE] |  |  | Not Active | Not Active | Not Active | Not Active | Not Active | Not Active | Not Active | Not Active | Not Active | Not Active | 
CCCCc1nc(Cl)c(CO)n1Cc1ccc(-c2ccccc2-c2nnn[nH]2)cc1 [LOSARTAN] |  |  | Not Active | Not Active | Not Active | Not Active | Not Active | Not Active | Not Active | Not Active | Not Active | Not Active | 
Sc1ncnc2nc[nH]c12 [MERCAPTOPURINE ANHYDROUS] |  |  | Not Active | Not Active | Not Active | Not Active | Not Active | Not Active | Not Active | Not Active | Not Active | Not Active | 
C[C@](N)(Cc1ccc(O)c(O)c1)C(=O)O [METHYLDOPA] |  |  | Not Active | Not Active | Not Active | Not Active | Not Active | Not Active | Not Active | Not Active | Not Active | Not Active | 
C[C@]12CCC(=O)C=C1CC[C@@H]1[C@@H]2CC[C@@]2(C)[C@H]1CC[C@]2(C)O [METHYLTESTOSTERONE] |  |  | Not Active | Not Active | Not Active | Not Active | Not Active | Not Active | Not Active | Not Active | Not Active | Not Active | 
Cc1ccccc1N1C(=O)c2cc(S(N)(=O)=O)c(Cl)cc2NC1C (stereo unspecified) [METOLAZONE] |  |  | Not Active | Not Active | Not Active | Not Active | Not Active | Not Active | Not Active | Not Active | Not Active | Not Active | 
COCCc1ccc(OCC(O)CNC(C)C)cc1 (stereo unspecified) [METOPROLOL] |  |  | Not Active | Not Active | Not Active | Not Active | Not Active | Not Active | Not Active | Not Active | Not Active | Not Active | 
CCn1cc(C(=O)O)c(=O)c2cc(F)c(N3CCNCC3)cc21 [NORFLOXACIN] |  |  | Not Active | Not Active | Not Active | Not Active | Not Active | Not Active | Not Active | Not Active | Not Active | Not Active | 
NC1=NC(=O)C(c2ccccc2)O1 (stereo unspecified) [PEMOLINE] |  |  | Not Active | Not Active | Not Active | Not Active | Not Active | Not Active | Not Active | Not Active | Not Active | Not Active | 
Nc1nc2c(ncn2CCC(CO)CO)c(=O)[nH]1 [PENCICLOVIR] |  |  | Not Active | Not Active | Not Active | Not Active | Not Active | Not Active | Not Active | Not Active | Not Active | Not Active | 
C=C(C)C1(O)OC(=O)C=C1OC (stereo unspecified) [PENICILLIC ACID] |  |  | Not Active | Not Active | Not Active | Not Active | Not Active | Not Active | Not Active | Not Active |  | Not Active | Not Active
CC1(C)S[C@@H]2[C@H](NC(=O)Cc3ccccc3)C(=O)N2[C@H]1C(=O)O [PENICILLIN G] |  |  | Not Active | Not Active | Not Active | Not Active | Not Active | Not Active | Not Active | Not Active | Not Active | Not Active | 
